Here are results for 25 compounds from patent US10138207B2, “Benzomorphan analogs and the use thereof” (priority 2012, dated 2018).

Test [1] concerns the target T1, κ opioid receptor (Homo sapiens, UniProt P41145). The test is described as follows: biochemical. The test is classed as binding. More on the design: expressed in transfected cells; host or cells: HEK 293 (in-house membrane prep). As to conditions: HEK-293 or CHO cells.
A further test has as its target μ-opioid receptor (Homo sapiens, UniProt P35372). The test is described as follows: μ-opioid receptor [35S]GTPγS functional assay, U-2 OS cells. Format: biochemical. More on the design: expressed in transfected cells; host or cells: U-2 OS. As to conditions: for Emax: relative to DAMGO. A general note: GTPγS resists hydrolysis and so accumulates on activated G proteins.

Test [2] addresses T1, κ opioid receptor. The test is described as follows: κ-opioid receptor [35S]GTPγS functional assay, U-2 OS cells. Format: biochemical. Details: expressed in transfected cells; host or cells: U-2 OS (in-house membranes). As to conditions: for Emax: read-out: GTPγS κ Emax.
Method: Membranes from recombinant HEK-293 cells, CHO or U-2 OS cells expressing the recombinant human κ opioid receptor (κ) were prepared by lysing cells in ice cold hypotonic buffer (2.5 mM MgCl2, 50 mM HEPES, pH 7.4) (10 mL/10 cm dish) followed by homogenization with a tissue grinder/Teflon pestle. […] Membranes were collected by centrifugation at 30,000×g for 15 min at 4° C. and pellets were resuspended in hypotonic buffer to a final concentration of 1-3 mg/mL. Protein concentrations were determined using the BioRad protein assay reagent with bovine serum albumen as standard. Aliquots of κ receptor membranes were stored at −80° C.
Plates were incubated for 30 min at a temperature of about 25° C. with shaking.
Setting [3] is: U-2 OS cells, read-out: GTPγS μ EC50.
The mark [4] stands for this setting: U-2 OS cells, read-out: GTPγS μ Emax.
Setting [5] is: U-2 OS cells, read-out: GTPγS κ EC50.
The mark [6] stands for this setting: U-2 OS cells, relative to U69,593.

Read-outs that look alike come from different tables or passages of the source.

Sequence of μ-opioid receptor (P35372 whole entry, species assumed): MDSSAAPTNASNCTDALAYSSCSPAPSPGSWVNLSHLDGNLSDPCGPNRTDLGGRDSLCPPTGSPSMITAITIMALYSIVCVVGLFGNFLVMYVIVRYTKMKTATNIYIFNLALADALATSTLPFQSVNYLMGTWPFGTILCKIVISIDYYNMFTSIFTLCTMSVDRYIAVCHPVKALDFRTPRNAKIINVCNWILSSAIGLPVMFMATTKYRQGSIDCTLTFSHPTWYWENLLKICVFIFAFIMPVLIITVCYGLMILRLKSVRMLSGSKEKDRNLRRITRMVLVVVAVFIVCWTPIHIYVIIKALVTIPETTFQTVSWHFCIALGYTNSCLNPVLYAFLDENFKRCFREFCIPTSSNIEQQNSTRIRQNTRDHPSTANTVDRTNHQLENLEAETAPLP
T1 sequence (P41145 whole entry): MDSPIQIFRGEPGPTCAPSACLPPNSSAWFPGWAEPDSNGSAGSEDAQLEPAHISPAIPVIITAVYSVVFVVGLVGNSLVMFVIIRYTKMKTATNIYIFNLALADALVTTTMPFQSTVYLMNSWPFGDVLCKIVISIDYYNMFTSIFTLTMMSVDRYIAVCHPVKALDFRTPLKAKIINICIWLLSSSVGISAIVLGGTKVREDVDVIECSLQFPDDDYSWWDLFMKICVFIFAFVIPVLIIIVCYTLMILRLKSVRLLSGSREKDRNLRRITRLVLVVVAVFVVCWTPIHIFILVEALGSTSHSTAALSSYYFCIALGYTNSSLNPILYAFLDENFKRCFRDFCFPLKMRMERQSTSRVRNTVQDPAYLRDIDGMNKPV

Take `COc1ccc2c(c1)[C@@]1(C)CCN(C)C(C2)C1NC(=O)/C=C/c1ccoc1` (stereo in doubt) [Compound 23, (E)-3-(furan-3-yl)-N-((2R,6R,11S)-8-methoxy-3,6-dimethyl-1,2,3,4,5,6-hexahydro-2,6-methanobenzo[d]azocin-11-yl)acrylamide]: on κ opioid receptor [1], the Ki – broadly, a dissociation constant, usually derived from enzyme kinetics or from competition with a known ligand – was 13.2 µM.
`CN1CC[C@]2(C)c3cc(O)ccc3CC1C2N(C)C(=O)CCC(=O)O` (stereo in doubt) [Compound 28, 4-(((2R,6R,11S)-8-hydroxy-3,6-dimethyl-1,2,3,4,5,6-hexahydro-2,6-methanobenzo[d]azocin-11-yl)(methyl)amino)-4-oxobutanoic acid] yielded an inhibition constant (Ki) on κ opioid receptor [1] of 18.2 µM. Also, on μ-opioid receptor (setting [3]), the EC50 (as a rule, the concentration giving half of the maximal effect) is 1.56 ± 0.106 µM. In addition, the maximal response (Emax) (usually the size of the effect at its maximum, as opposed to the concentration needed) on μ-opioid receptor (setting [4]) turned out to be 74.7 ± 4.63%.
At κ opioid receptor [1], `CN(C)C(=O)C(CCN1CC[C@]2(C)c3cc(O)ccc3CC1C2N(C)C(=O)Nc1ccc(C#N)cc1)(c1ccccc1)c1ccccc1` (stereo in doubt) [Compound 84, 4-((2R,6R,11S)-11-(3-(4-cyanophenyl)-1-methylureido)-8-hydroxy-6-methyl-1,2,5,6-tetrahydro-2,6-methanobenzo[d]azocin-3(4H)-yl)-N,N-dimethyl-2,2-diphenylbutanamide] had an inhibition constant Ki of 0.269 ± 0.0277 µM. For the same compound, the EC50 on μ-opioid receptor (setting [3]) was 0.0839 ± 0.0133 µM. For the same compound, the Emax at μ-opioid receptor (setting [4]) turned out to be 90.7 ± 1.86%.
The compound `CN[C@@H]1C2Cc3ccc(OC)cc3[C@@]1(C)CCN2C` [Compound 8, (6R,11S)-8-methoxy-N,3,6-trimethyl-1,2,3,4,5,6-hexahydro-2,6-methanobenzo[d]azocin-11-amine] came in with a Ki at κ opioid receptor [1] (bound in μM) above 20 µM.
At κ opioid receptor [1], `CN[C@H]1C2Cc3ccc(OC)cc3[C@@]1(C)CCN2C` [Compound 9, (6R,11R)-8-methoxy-N,3,6-trimethyl-1,2,3,4,5,6-hexahydro-2,6-methanobenzo[d]azocin-11-amine] gave an inhibition constant Ki of 18.9 ± 3.13 µM.
As to `CON=C1C2Cc3ccc(OC)cc3C1(C)CCN2CC1CC1` (stereo not shown) [Compound 10, 3-(cyclopropylmethyl)-8-methoxy-6-methyl-1,2,3,4,5,6-hexahydro-2,6-methanobenzo[d]azocin-11-one O-methyl Oxime], the Ki on κ opioid receptor [1] came out at 2.14 ± 0.151 µM.
As to `COc1ccc2c(c1)[C@@]1(C)CCN(C)C(C2)[C@@H]1CO` [Compound 11, ((6S,11R)-8-methoxy-3,6-dimethyl-1,2,3,4,5,6-hexahydro-2,6-methanobenzo[d]azocin-11-yl)methanol], on κ opioid receptor [1] (bound in μM), the inhibitory constant (Ki) was above 20 µM.
On the same count and under the same terms, as for `CCOC(=O)/C=C1\C2Cc3ccc(OC)cc3C1(C)CCN2C` (stereo not shown) [Compound 12], the figure is above 20 µM; as for `COc1ccc2c(c1)C1(C)CCN(C)C(C2)/C1=C\C(=O)O` (stereo not shown) [Compound 13, (Z)-2-(8-methoxy-3,6-dimethyl-1,2,3,4,5,6-hexahydro-2,6-methanobenzo[d]azocin-11-ylidene)acetic acid], above 20 µM.
In the case of `CCOC(=O)C[C@H]1C2Cc3ccc(OC)cc3[C@@]1(C)CCN2C` [Compound 14, ethyl 2-((6S,11R)-8-methoxy-3,6-dimethyl-1,2,3,4,5,6-hexahydro-2,6-methanobenzo[d]azocin-11-yl)acetate], the Ki at κ opioid receptor [1] is 14.3 µM.
With `COc1ccc2c(c1)[C@@]1(C)CCN(C)C(C2)[C@@H]1CC(=O)O` [Compound 15, 2-((6S,11R)-8-methoxy-3,6-dimethyl-1,2,3,4,5,6-hexahydro-2,6-methanobenzo[d]azocin-11-yl)acetic acid], the Ki at κ opioid receptor [1] (bound in μM) is above 20 µM.
Regarding `CN1CCC2(C)C(=NO)C1Cc1ccc(O)cc12` (stereo not shown) [Compound 18, 8-hydroxy-3,6-dimethyl-1,2,3,4,5,6-hexahydro-2,6-methanobenzo[d]azocin-11-one oxime], at κ opioid receptor [1], affinity was put at a Ki of 5.58 ± 1.01 µM.
With `COc1ccc2c(c1)C1(C)CCN(CCC(C(=O)N(C)C)(c3ccccc3)c3ccccc3)C(C2)C1=NO` (stereo not shown) [Compound 19, 4-(11-(hydroxyimino)-8-methoxy-6-methyl-1,2,5,6-tetrahydro-2,6-methanobenzo[d]azocin-3(4H)-yl)-N,N-dimethyl-2,2-diphenylbutanamide], the inhibition constant (Ki) on κ opioid receptor [1] was found to be 8.52 ± 0.605 µM.
The same measure, in the same setting: as for `COc1ccc2c(c1)[C@@]1(C)CCN(C)C(C2)[C@H]1N(C)C(=O)/C=C/c1ccoc1` [Compound 20, (E)-3-(furan-3-yl)-N-((6R,11S)-8-methoxy-3,6-dimethyl-1,2,3,4,5,6-hexahydro-2,6-methanobenzo[d]azocin-11-yl)-N-methylacrylamide], the figure is 1.95 ± 0.538 µM; as for `CN(C)C(=O)C(CCN1CC[C@]2(C)c3cc(O)ccc3CC1[C@@H]2O)(c1ccccc1)c1ccccc1` [Compound 21, 4-((6R,11R)-8,11-dihydroxy-6-methyl-1,2,5,6-tetrahydro-2,6-methanobenzo[d]azocin-3(4H)-yl)-N,N-dimethyl-2,2-diphenylbutanamide], 1.22 ± 0.332 µM.
Turning to `COc1ccc2c(c1)[C@@]1(C)CCN(C)[C@@H](C2)C1=NNC(=O)c1ccc(F)cc1` [Compound 26, 4-fluoro-N′-((2S,6R)-8-methoxy-3,6-dimethyl-1,2,3,4,5,6-hexahydro-2,6-methanobenzo[d]azocin-11-ylidene)benzohydrazide], the Ki on κ opioid receptor [1] (bound in μM) is above 20 µM. On μ-opioid receptor (GTPγS μ EC50, U-2 OS cells), this compound displayed a concentration for a half-maximal effect (EC50) of 1.19 ± 0.0939 µM. Further, the maximum response (Emax) at μ-opioid receptor (setting [4]) is 91 ± 7.09%.
For the compound `CN1CC[C@@]2(C)c3cc(O)ccc3C[C@@H]1[C@@H]2N(C)S(=O)(=O)c1cccc(C(F)(F)F)c1` [Compound 132, N-((2R,6S,11R)-8-hydroxy-3,6-dimethyl-1,2,3,4,5,6-hexahydro-2,6-methanobenzo[d]azocin-11-yl)-N-methyl-3-(trifluoromethyl)benzenesulfonamide], the EC50 at κ opioid receptor [2] (setting [5]) is 0.0114 ± 0.00158 µM; at μ-opioid receptor (setting [3]) it was 0.00303 ± 0.00017 µM. Moreover, the Emax at κ opioid receptor [2] (setting [6]) was found to be 89 ± 5.69%; at μ-opioid receptor (setting [4]), 95.3 ± 2.6%.
In the same order, the values of `CN(C(=O)Nc1ccc(C(C)(C)C)cc1)[C@@H]1[C@H]2Cc3ccc(O)cc3[C@]1(C)CCN2CC1CC1` [Compound 133, 3-(4-(tert-butyl)phenyl)-1-((2R,6S,11S)-3-(cyclopropylmethyl)-8-hydroxy-6-methyl-1,2,3,4,5,6-hexahydro-2,6-methanobenzo[d]azocin-11-yl)-1-methylurea] are 0.0217 ± 0.00316 µM, 0.0039 ± 0.00074 µM, 42 ± 4.02% and 22.3 ± 1.2%.
For `CN(C(=O)Nc1nc2cc(F)ccc2s1)[C@@H]1[C@H]2Cc3ccc(O)cc3[C@]1(C)CCN2CC1CC1` [Compound 134, 1-((2R,6S,11S)-3-(cyclopropylmethyl)-8-hydroxy-6-methyl-1,2,3,4,5,6-hexahydro-2,6-methanobenzo[d]azocin-11-yl)-3-(5-fluorobenzo[d]thiazol-2-yl)-1-methylurea], the concentration giving a half-maximal response (EC50) at κ opioid receptor [2] was above 20 µM; on μ-opioid receptor (GTPγS μ EC50, U-2 OS cells), 0.00147 ± 0.00058 µM. Also, the Emax at κ opioid receptor [2] came out at 90%; at μ-opioid receptor (read-out: GTPγS μ Emax, U-2 OS cells), 16 ± 0.71%.
Regarding `C=CC[C@@]12CCN(C)C(Cc3ccc(OC)cc31)[C@@H]2N(C)C(=O)Nc1ccc(C#N)cc1` [Compound 135, 1-((6R,11R)-6-allyl-8-methoxy-3-methyl-1,2,3,4,5,6-hexahydro-2,6-methanobenzo[d]azocin-11-yl)-3-(4-cyanophenyl)-1-methylurea], the EC50 came out at 2.81 ± 0.397 µM on κ opioid receptor [2] (setting [5]) and 1.7 ± 0.112 µM on μ-opioid receptor (setting [3]). In addition, the Emax on κ opioid receptor [2] (setting [6]) came out at 22 ± 2.52%; at μ-opioid receptor (setting [4]), 92 ± 2.65%.
In the same order, the values of `CCC[C@@]12CCN(C)C(Cc3ccc(OC)cc31)[C@@H]2N(C)C(=O)Nc1ccc(C#N)cc1` [Compound 136, 3-(4-cyanophenyl)-1-((6R,11R)-8-methoxy-3-methyl-6-propyl-1,2,3,4,5,6-hexahydro-2,6-methanobenzo[d]azocin-11-yl)-1-methylurea] are 3.83 ± 0.541 µM, 2.33 ± 0.236 µM, 22.3 ± 3.71% and 62.3 ± 3.84%.
On the same counts, the results for `CCC[C@@]12CCN(C)C(Cc3ccc(O)cc31)[C@H]2N(C)C(=O)Nc1ccc(C#N)cc1` [Compound 137, 3-(4-cyanophenyl)-1-((6R,11S)-8-hydroxy-3-methyl-6-propyl-1,2,3,4,5,6-hexahydro-2,6-methanobenzo[d]azocin-11-yl)-1-methylurea] are 3.37 ± 0.753 µM, 1.32 ± 0.177 µM, 30 ± 2.31% and 50.3 ± 1.76%.
As to `CCC[C@@]12CCN(C)C(Cc3ccc(OC)cc31)[C@H]2N(C)C(=O)Nc1ccc(CN)cc1` [Compound 138, 3-(4-(aminomethyl)phenyl)-1-((6R,11S)-8-methoxy-3-methyl-6-propyl-1,2,3,4,5,6-hexahydro-2,6-methanobenzo[d]azocin-11-yl)-1-methylurea], the EC50 on κ opioid receptor [2] (U-2 OS cells, bound in μM, read-out: GTPγS κ EC50) is above 20 µM; on μ-opioid receptor (U-2 OS cells, bound in μM, read-out: GTPγS μ EC50), above 20 µM. Further, the results for the maximal response (Emax) on κ opioid receptor [2] (setting [6]) and on μ-opioid receptor (setting [4]) were 35.5 ± 2.06% and 45.3 ± 2.33%, respectively.
Turning to `CN1CC[C@@]2(C)c3cc(O)ccc3C[C@@H]1[C@@H]2NC(=O)Nc1nc2cc(F)ccc2s1` [Compound 139, 1-(5-fluorobenzo[d]thiazol-2-yl)-3-((2R,6S,11R)-8-hydroxy-3,6-dimethyl-1,2,3,4,5,6-hexahydro-2,6-methanobenzo[d]azocin-11-yl)urea], the EC50 on κ opioid receptor [2] (setting [5]) was determined as 0.0918 ± 0.00488 µM; at μ-opioid receptor (setting [3]) it was 0.0125 ± 0.00218 µM. The Emax on κ opioid receptor [2] (setting [6]) was found to be 48 ± 5.13%; at μ-opioid receptor (setting [4]), 87 ± 3.08%.
In the same order, the values of `CN1CC[C@@]2(C)c3cc(O)ccc3C[C@@H]1[C@@H]2N(C)C(=O)Nc1nc2cc(F)ccc2s1` [Compound 140, 3-(5-fluorobenzo[d]thiazol-2-yl)-1-((2R,6S,11R)-8-hydroxy-3,6-dimethyl-1,2,3,4,5,6-hexahydro-2,6-methanobenzo[d]azocin-11-yl)-1-methylurea] are 0.00468 ± 0.0004 µM, 0.0001 ± 1e-05 µM, 107 ± 4.4% and 82 ± 0.91%.
